Article PMC6273036, “N-Alkoxyphenylhydroxynaphthalenecarboxamides and Their Antimycobacterial Activity” (Molecules, 2016)
Converted amounts (≈) assume the structure as drawn. Read-outs that look alike come from different tables or passages of the source.

What was measured:
[1] = system: Mycobacterium tuberculosis H37Ra ATCC 25177; test: In vitro antimycobacterial evaluation (alamarBlue, MIC) against M. tuberculosis; assay type: cell-based; settings: 168 h, M. tuberculosis H37Ra ATCC 25177, MIC = 90% or greater (IC90) reduction of growth, 7 days
Experimental: The evaluation of the in vitro antimycobacterial activity of the compounds was performed against Mycobacterium tuberculosis H37Ra ATCC 25177 (MT), M. kansasii DSM 44162 (MK) and M. smegmatis ATCC 700084 (MS), see Table 1. To lower risk and make manipulation in the laboratory easier, surrogate model pathogens for M. tuberculosis can be used in laboratory studies. Avirulent M. tuberculosis strain H37Ra is very closely related to and has similar pathology as human-infecting M. tuberculosis strains, making it a good model for study especially because of the lower risk for laboratory workers. M. kansasii, the most virulent of the NTM, causes nontuberculous mycobacterial lung infections, which are now very common, and can be indistinguishable from tuberculosis. M. smegmatis is an ideal representative of a fast-growing nonpathogenic microorganism, particularly useful in studying basic cellular processes of special relevance to pathogenic mycobacteria. Therefore additionally M. kansasii and M. smegmatis were chosen as model species for screening of prospective antimycobacterial drugs to control mycobacterial diseases. The potency of the compounds was expressed as the minimum inhibitory concentration (MIC) that is defined for mycobacteria as 90% or greater (IC90) reduction of growth in comparison with the control.
Mycobacterium tuberculosis H37Ra ATCC 25177 was grown in Middlebrook broth (MB), supplemented with Oleic-Albumin-Dextrose-Catalase (OADC) supplement (Becton, Dickinson & Comp., Franklin Lakes, NJ, USA) and mycobactin J (2 μg/mL). At log phase growth, a culture sample (10 mL) was centrifuged at 15,000 rpm/20 min using a bench top centrifuge (Model CR 4-12, Jouan Inc., Winchester, VA, USA). Following the removal of the supernatant, the pellet was washed in fresh Middlebrook 7H9GC broth and re-suspended in fresh, ODAC-supplemented MB (10 mL). The turbidity was adjusted to match McFarland standard No. 1 (3 × 10^8 cfu) with MB broth. A further 1:20 dilution of the culture was then performed in MB broth. The antimicrobial susceptibility of M. tuberculosis was investigated in a 96-well plate format. In these experiments, sterile deionised water (300 µL) was added to all outer-perimeter wells of the plates to minimize evaporation of the medium in the test wells during incubation. Each evaluated compound (100 µL) was incubated with M. tuberculosis (100 µL). Dilutions of each compound were prepared in duplicate. For all synthesized compounds, final concentrations ranged from 1000 μg/mL to 8 μg/mL. All compounds were dissolved in DMSO, and subsequent dilutions were made in supplemented MB. The plates were sealed with parafilm and incubated at 37 °C for 7 days. Following incubation, a 10% addition of alamarBlue (AbD Serotec, Kidlington, UK) was mixed into each well, and readings at 570 nm and 600 nm were taken, initially for background subtraction and subsequently after 24 h re-incubation. The background subtraction is necessary for strongly coloured compounds, where the colour may interfere with the interpretation of any colour change. For non-interfering compounds, a blue colour in the well was interpreted as the absence of growth, and a pink colour was scored as growth.
The minimum inhibitory concentration (MIC) was defined as the lowest concentration of the compound at which no visible bacterial growth was observed, i.e., the MIC is the lowest concentration that prevented a visual colour change from blue to pink. MIC is defined for mycobacteria as 90% or greater (IC90) reduction of growth in comparison with the control. The MIC/IC90 value is routinely and widely used in bacterial assays and is a standard detection limit according to the Clinical and Laboratory Standards Institute (CLSI, www.clsi.org). Rifampicin and isoniazid (Sigma-Aldrich) were used as the standards as they are clinically used antimycobacterial drugs.

M. smegmatis ATCC 700084 = test: In vitro antimycobacterial evaluation (broth dilution micro-method, MIC) against M. smegmatis; assay type: cell-based; settings: Mycolicibacterium smegmatis, ATCC700084, 72 h; Mycobacterium smegmatis ATCC 700084; MIC = IC90; 3 days incubation, visual
[2] = system: Mycobacterium kansasii DSM 44162; test: In vitro antimycobacterial evaluation (broth dilution micro-method, MIC) against M. kansasii; assay type: cell-based; settings: DSM44162, 168 h, M. kansasii DSM 44162, MIC = IC90, 7 days incubation, visual
[3] = system: Mycobacterium tuberculosis H37Ra ATCC 25177; test: MTT assay, viability of M. tuberculosis H37Ra; assay type: cell-based; settings: at the tested concentration equal to MICs; 7 days; positive result when viability less than 70%
Experimental: The MTT assay is a well-characterized method of assessing cell growth through measurement of respiration. For the purpose of this assay, a positive result was recorded when the MTT measured viability of M. tuberculosis H37Ra was less than 70% after exposure to the MIC of each test compound.
For the MTT (3-(4,5-dimethylthiazol-2-yl)-2,5-diphenyltetrazolium bromide) assay, the outer wells of a 96-well plate were filled with 200 µL of sterile water, and the inner wells were filled with 100 µL of the tested compound at the MIC to be examined. Compounds were prepared as previously stated and diluted in Middlebrook media to achieve the desired concentration. Mycobacterium tuberculosis H37Ra ATCC 25177 was suspended in ODAC supplemented Middlebrook broth at a MacFarland standard of 1.0 and then diluted 1:20, using Middlebrook broth as a diluent. The diluted mycobacteria (100 µL) were added to each well containing the compound to be tested. A negative growth control was composed of 100 µL of DMSO and 100 µL of the media, and the diluted mycobacteria in broth absent of inhibiting compounds were used as a positive growth control. All compounds and controls were prepared in triplicate. Plates were incubated at 37 °C for 7 days. After the incubation period, 10% well volume of MTT reagent was mixed into each well and incubated at 37 °C for 24 h. The reagent and media were then aspirated from the wells, to which 50 µL 99% isopropanol was then added, and the plates were read at 570 nm. The absorbance readings from the cells, grown in the presence of the tested compounds, were compared with uninhibited cell growth (using DMSO as the blank) to determine the relative percent viability. The percent viability was determined through the MTT assay. The percent viability is calculated through comparison of a measured value against that of the uninhibited control: %viability = OD570E/OD570P × 100, where OD570E is the reading from the compound-exposed cells, while OD570P is the reading from the uninhibited cells (positive control). Cytotoxic potential is determined by a percent viability of <70%.

[4] = system: human monocytic leukemia THP-1 cells; test: In vitro antiproliferative assay (WST-1); settings: THP-1, 24 h, read-out: IC50 (antiproliferative activity)
Experimental: Human monocytic leukemia THP-1 cells were used for in vitro antiproliferative assay. Cells were obtained from the European Collection of Cell Cultures (ECACC, Salisbury, UK) and routinely cultured in RPMI 1640 medium supplemented with 10% fetal bovine serum, 2% L-glutamine, 1% penicillin and streptomycin at 37 °C with 5% CO2. Cells were passaged at approximately one-week intervals. Antiproliferative activity of the compounds was determined using a Water Soluble Tetrazolium Salts-1 (WST-1, 2-(4-iodophenyl)-3-(4-nitrophenyl)-5-(2,4-disulfophenyl)-2H-tetrazolium) assay kit (Roche Diagnostics, Mannheim, Germany) according to the manufacturer’s instructions. The tested compounds were dissolved in DMSO and added in five increasing concentrations (0.37, 1.1, 3.3, 10 and 30 μM) to the cell suspension in the culture RPMI 1640 medium. The maximum concentration of DMSO in the assays never exceeded 0.1%. Subsequently, the cells were incubated for 24 h at 37 °C with 5% CO2. For WST-1 assays, cells were seeded into 96-well plates (5 × 10^4 cells/well in 100 μL culture medium) in triplicate in serum-free RPMI 1640 medium, and measurements were taken 24 h after the treatment with the compounds. The median inhibition concentration values, IC50, were deduced through the production of a dose-response curve. All data were evaluated using GraphPad Prism 5.00 software (GraphPad Software, San Diego, CA, USA).

[5] = system: human monocytic leukemia THP-1 cells; settings: assessed in this line formerly, read-out: IC50 (antiproliferative activity); cited from earlier work

Row | Structure (SMILES) | MIC [1] | MIC (M. smegmatis ATCC 700084) | MIC [2] | viability of M. tuberculosis H37Ra (MTT) [3] | IC50 [4] | IC50 [5]
1 | CCOc1ccccc1NC(=O)c1c(O)ccc2ccccc12 [Compound 3a, N-(2-Ethoxyphenyl)-2-hydroxynaphthalene-1-carboxamide] | 26 µM (≈ 7.99 µg/mL) | 832 µM (≈ 256 µg/mL) | 832 µM (≈ 256 µg/mL) | 30.6% | > 30 µM | 
2 | CCOc1ccc(NC(=O)c2c(O)ccc3ccccc23)cc1 [Compound 3c] | 26 µM (≈ 7.99 µg/mL) | 832 µM (≈ 256 µg/mL) | 104 µM (≈ 32 µg/mL) | 9.96% | > 30 µM | 
3 | CCCOc1ccc(NC(=O)c2c(O)ccc3ccccc23)cc1 [Compound 4c, 2-Hydroxy-N-(4-propoxyphenyl)naphthalene-1-carboxamide] | 12 µM (≈ 3.86 µg/mL) | 398 µM (≈ 128 µg/mL) | 99 µM (≈ 31.8 µg/mL) | 5.90% | > 30 µM | 
4 | CCCCOc1cccc(NC(=O)c2c(O)ccc3ccccc23)c1 [Compound 5b, N-(3-Butoxyphenyl)-2-hydroxynaphthalene-1-carboxamide] | 23 µM (≈ 7.71 µg/mL) | 381 µM (≈ 128 µg/mL) | 190 µM (≈ 63.7 µg/mL) | 7.38% | > 30 µM | 
5 | CC(C)Oc1ccc(NC(=O)c2c(O)ccc3ccccc23)cc1 [Compound 6c, 2-Hydroxy-N-[4-(prop-2-yloxy)phenyl]naphthalene-1-carboxamide] | 25 µM (≈ 8.03 µg/mL) | 796 µM (≈ 256 µg/mL) | 99 µM (≈ 31.8 µg/mL) | 8.96% | > 30 µM | 
6 | CCC(C)Oc1cccc(NC(=O)c2c(O)ccc3ccccc23)c1 (stereo not shown) [Compound 7b, N-[3-(But-2-yloxy)phenyl]-2-hydroxynaphthalene-1-carboxamide] | 23 µM (≈ 7.71 µg/mL) | 12 µM (≈ 4.02 µg/mL) | 47 µM (≈ 15.8 µg/mL) | 7.38% | > 30 µM | 
7 | CCC(C)Oc1ccc(NC(=O)c2c(O)ccc3ccccc23)cc1 (stereo not shown) [Compound 7c, N-[4-(But-2-yloxy)phenyl]-2-hydroxynaphthalene-1-carboxamide] | 23 µM (≈ 7.71 µg/mL) | 12 µM (≈ 4.02 µg/mL) | 95 µM (≈ 31.9 µg/mL) | 8.86% | > 30 µM | 
8 | CCCOc1cccc(NC(=O)c2ccc3ccccc3c2O)c1 [Compound 11b, 1-Hydroxy-N-(3-propoxyphenyl)naphthalene-2-carboxamide] | 24 µM (≈ 7.71 µg/mL) | 199 µM (≈ 64 µg/mL) | 49 µM (≈ 15.7 µg/mL) | 15.13% | 1.37 ± 0.72 µM | 
9 | CCCCOc1cccc(NC(=O)c2ccc3ccccc3c2O)c1 [Compound 12b, N-(3-Butoxyphenyl)-1-hydroxynaphthalene-2-carboxamide] | 23 µM (≈ 7.71 µg/mL) | 190 µM (≈ 63.7 µg/mL) | 47 µM (≈ 15.8 µg/mL) | 9.96% | 1.8 ± 0.32 µM | 
10 | CC(C)Oc1ccc(NC(=O)c2ccc3ccccc3c2O)cc1 [Compound 13c, 1-Hydroxy-N-[4-(prop-2-yloxy)phenyl]naphthalene-2-carboxamide] | 778 µM (≈ 250 µg/mL) | 796 µM (≈ 256 µg/mL) | 49 µM (≈ 15.7 µg/mL) |  | 9.39 ± 1.39 µM | 
11 | CCC(C)Oc1ccccc1NC(=O)c1ccc2ccccc2c1O (stereo not shown) [Compound 14a, N-[2-(But-2-yloxy)phenyl]-1-hydroxynaphthalene-2-carboxamide] | 745 µM (≈ 250 µg/mL) | 763 µM (≈ 256 µg/mL) | 47 µM (≈ 15.8 µg/mL) |  | 9.03 ± 1.18 µM | 
12 | CCC(C)Oc1cccc(NC(=O)c2ccc3ccccc3c2O)c1 (stereo not shown) [Compound 14b, N-[3-(But-2-yloxy)phenyl]-1-hydroxynaphthalene-2-carboxamide] | 23 µM (≈ 7.71 µg/mL) | 12 µM (≈ 4.02 µg/mL) | 47 µM (≈ 15.8 µg/mL) | 9.96% | 1.17 ± 0.38 µM | 
13 | CCC(C)Oc1ccc(NC(=O)c2ccc3ccccc3c2O)cc1 (stereo not shown) [Compound 14c, N-[4-(But-2-yloxy)phenyl]-1-hydroxynaphthalene-2-carboxamide] | 745 µM (≈ 250 µg/mL) | 12 µM (≈ 4.02 µg/mL) | 23 µM (≈ 7.71 µg/mL) |  | 3.41 ± 0.41 µM | 
14 | CO[C@H]1/C=C/O[C@@]2(C)Oc3c(C)c(O)c4c(O)c(c(/C=N/N5CCN(C)CC5)c(O)c4c3C2=O)NC(=O)/C(C)=C\C=C\[C@H](C)[C@H](O)[C@@H](C)[C@@H](O)[C@@H](C)[C@H](OC(C)=O)[C@@H]1C [RIF, rifampicin, reference compound] | 10 µM (≈ 8.23 µg/mL) | 19 µM (≈ 15.6 µg/mL) | 0.15 µM (≈ 0.123 µg/mL) |  | > 30 µM | 
15 | CC[C@@]1(O)C(=O)OCc2c1cc1n(c2=O)Cc2cc3ccccc3nc2-1 [camptothecin] |  |  |  |  |  | 160 ± 70 nM
